Reference: patent publication US6548043B1, “Measurement of gastric emptying” (Metabolic Solutions, Inc., priority 1999, dated 2003)

Assay: GMBT, influence of a promotility agent
Format: in vivo, human
Conditions: Cisapride 10 mg the evening before and one half hour before a 350 kcal muffin test meal
Experimental: An experiment was done to examine the ability of the GMBT to detect changes introduced by the promotility agent, Cisapride. Gastric emptying tests employing a 350 kcal muffin test meal were administered on two occasions within a one-week period. One test was conducted as a control. The other test was conducted after treatment with Cisapride. Cisapride (10 mg) was administered at 10:00 P.M. on the evening prior to the test and one half hour before administration of the muffin test meal. Gastric emptying results for the control meal were delayed relative to the meal administered with Cisapride.

With `COc1cc(N)c(Cl)cc1C(=O)NC1CCN(CCCOc2ccc(F)cc2)CC1OC` (centres unmarked) [Cisapride] the “change in T½ versus control” value (p=0.05) was “significant decrease” and the “change in Tlag versus control” value (p=0.21) was “not significant”.
